Earlier results in US20230405034A1, “FORMULATION OF IVERMECTIN IN SOFT GELATIN CAPSULES” (PROCAPS S.A., priority 2020, published 2023).

Experiments:
[1] = in vivo; cited from earlier work
[2] = cited from earlier work
[3] = system: pseudorabies DNA virus (PRV); details: ivermectin treatment; cited from earlier work
SARS-CoV-2 = SARS-CoV-2 in vitro, after 48 hours; cited from earlier work

| Substance | plasma half-life [1] | solubility in water [2] | survival in PRV-infected mice [3] | reduction in viral RNA (SARS-CoV-2) |
| --- | --- | --- | --- | --- |
| medium chain triglycerides | approximately 17 minutes | – | – | – |
| Ivermectin | – | practically insoluble in water | increases survival | approximately 5,000 fold |
